Series [1] deals with U2-OS cells stably expressing HaloTag-NLS.
The test system of series [2] is HaloTag-EDG1 fusion protein in U2-OS cells. The series can be described thus: Blocking internalization by DYNASORE, detected with pH sensor. Format: cell-based. The settings on record: 80 uM, 1 uM S1P for 60 minutes, detected with 1 uM PBI-4479. The protocol: In addition to dynamin, DYNASORE, a reversible, non-competitive inhibitor of dynamin, can also be used to block internalization/endocytosis with the blocking detected and monitored using the pH sensor of the present invention. […] After the overnight incubation, the cells were simultaneously labeled for 30 minutes with 1 uM HaloTag pH sensor (PBI-4479) and 80 uM Dynasore (Sigma). Control cells were labeled with the 1 uM HaloTag pH sensor, but were not treated with Dynasore. The cells were then stimulated with 1 uM S1P for 60 minutes and imaged as previously described.

For series [3] the test system is unchanged. The series can be described thus: Restoration of internalization by DYNASORE washout. Format: cell-based. To be noted: 80 uM removed by washing, then 1 uM S1P for 60 minutes. The protocol:
In such experiments, blocked internalization of HaloTag-EDG1 was restored. […] After the overnight incubation, the cells were simultaneously labeled with a HaloTag pH sensor (PBI-4479) and 80 uM DYNASORE (Sigma). Control cells were labeled with the HaloTag pH sensor, but were not treated with DYNASORE. The cells were then stimulated with 1 uM S1P and imaged (T=0 in FIG. 17). At this point, DYNASORE prevents the dynamin-dependent internalization/endocytosis of HaloTag-EDG1. DYNASORE was then removed by washing three times for 5 minutes with McCoy's 5A+10% FBS, and the media replaced with complete media containing 1 uM S1P. The cells were incubated for 60 minutes and imaged as previously described. Internalization of HaloTag-EDG1 was restored as detected and monitored by the pH sensor (SEE FIG. 19).

The nature of series [4]: Ex/Em printed with the synthesis procedures. It is filed as physicochemical.
A short description of series [5]: Fluorescence excitation and emission spectra of pH sensor agents. It is filed as physicochemical. On the procedure: (§1) Experiments were conducted during development of embodiments of the present invention to determine the fluorescence characteristics of exemplary pH sensor agents PBI-4453 and PBI-4479 (SEE FIG. 1). Fluorescence excitation and emission intensities were measured at a range of wavelengths (SEE FIG. 2). […] Fluorescence detection was performed at a range of pH values (SEE FIG. 3).

The nature of series [6]: pH dependence of fluorescence emission. It is filed as physicochemical. On the procedure: as §1
The test system of series [7] is U2OS cells. The series can be described thus: Toxicity, CELLTITER-GLO Luminescent Cell Viability Assay (Example 3). Format: cell-based. To be noted: 0 nM to 20 uM, 24 hour. The protocol:
The toxicity of dyes PBI-4479 and PBI-4453 was tested in U2OS cells. The cells were plated at 20,000 cells/well in McCoy's 5A media+10% FBS into wells of a 96-well plate. The compounds were then serially diluted 2-fold in McCoy's 5A+10% FBS to a 10× working solution. 10 ul of the working solution was added to the cells to a final concentration of 0 nM to 20 uM. The treated cells were then incubated overnight at 37° C., 5% CO2. Toxicity was tested using Promega's CELLTITER-GLO Luminescent Cell Viability Assay according to the manufacturer's protocol. No toxicity was seen across varying concentrations of the compounds over the 24 hour period (SEE FIG. 9).
(In general: ATP-based viability assays read luminescence as a measure of living cells.)

The test system of series [8] is U2-OS cells stably expressing HaloTag-NLS. The series is described as follows: pH sensor permeability, pulse and chase with HaloTag Oregon Green (Example 12). To be noted: 2 uM pulse for 10 minutes.
The test system of series [9] is wild-type U2-OS cells. The series can be described thus: Toxicity of HaloTag pH sensors, CELLTITER Glo Cell Viability Assay (Example 9). Format: cell-based. The settings on record: 0-10 uM, overnight. The protocol: U2-OS cells were plated at 10,000 cells/well into wells of 96-well plates and incubated overnight. The next day, 0-10 uM (serially diluted 1:2) PBI-4959, PBI-5004 or PBI-4479 was added to the cells and again incubated overnight. After incubation, the media containing the HaloTag® pH sensors was removed, and 100 ul of fresh media (McCoy's 5A+10% FBS) was added. Cell viability was determined using the CELLTITER Glo Cell Viability Assay according to the manufacturer's protocol (Promega Corporation). Luminescence was read on a GloMAX®-Multi luminometer.

The target of series [10] is T1, U2-OS HaloTag-EDG1 cells (Homo sapiens, UniProt P21453).
T1 construct: host or cells: U2-OS HaloTag-EDG1 cells
The series can be described thus: Detection of internalization using an impermeable pH sensor (Example 13). It is filed as cell-based. The settings on record: 500 nM sensor. On the procedure: The next day, the media was replaced with McCoy's 5A+0.5% cFBS and incubated overnight at 37° C./5% CO2. […] 1 uM S1P (Sphingosine-1-Phosphate) or carrier (DMSO) was then added to the cells, and images were acquired sequentially on Olympus FV500 at 37° C./5% CO2.

The target in series [11] is T1, U2-OS HaloTag-EDG1 cells. The series is described as follows: Detection of internalization using a permeable pH sensor (Example 13). Format: cell-based. To be noted: 500 nM sensor added after stimulation with or without 1 uM S1P. On the procedure:
To evaluate internalization using a permeable pH Sensor, U2-OS HaloTag®-EDG1 cells (Promega Corporation) were exposed to PBI-5004 and internalization of HaloTag®-EDG1 assessed. […] The next day, the media was replaced with McCoy's 5A+0.5% cFBS and incubated overnight at 37° C./5% CO2. After incubation, 1 uM S1P (Sphingosine-1-Phosphate) was added, and the cells incubated for 30 minutes at 37° C./5% CO2.

The values below come from patent US9702824B2, “pH sensors” (PROMEGA CORPORATION, priority 2012, dated 2017).

Where two headings read alike, the source gives them in different places.

T1 sequence (P21453 with tags, fused parts or gaps): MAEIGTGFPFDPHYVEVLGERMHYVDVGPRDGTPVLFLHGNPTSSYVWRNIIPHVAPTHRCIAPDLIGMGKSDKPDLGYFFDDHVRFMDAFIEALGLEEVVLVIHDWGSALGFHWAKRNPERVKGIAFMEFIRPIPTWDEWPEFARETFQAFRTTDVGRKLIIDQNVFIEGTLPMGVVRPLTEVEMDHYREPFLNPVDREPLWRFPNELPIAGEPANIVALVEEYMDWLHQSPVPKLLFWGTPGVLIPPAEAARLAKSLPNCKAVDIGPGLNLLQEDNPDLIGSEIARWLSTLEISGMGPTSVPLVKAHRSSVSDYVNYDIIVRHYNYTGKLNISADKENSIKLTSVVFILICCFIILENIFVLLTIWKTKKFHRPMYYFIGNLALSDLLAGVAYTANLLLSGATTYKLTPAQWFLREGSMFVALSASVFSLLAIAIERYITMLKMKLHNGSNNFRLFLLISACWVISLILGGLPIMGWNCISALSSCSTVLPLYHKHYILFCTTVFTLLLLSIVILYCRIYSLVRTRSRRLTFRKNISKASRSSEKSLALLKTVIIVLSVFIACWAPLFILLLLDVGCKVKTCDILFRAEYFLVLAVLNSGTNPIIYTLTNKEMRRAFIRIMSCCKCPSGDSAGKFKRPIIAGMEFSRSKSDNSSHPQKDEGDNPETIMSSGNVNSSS

Take “4-((1-(4-((2-(2-((6-chlorohexyl)oxy)ethoxy)ethyl)carbamoyl)phenyl)-3-oxo-6,9,12,15-tetraoxa-2-azaheptadecan-17-yl)) 3′,6′-bis(4-(4-sulfobutyl)piperazin-1-yl) rhodamine(5′,6′)carboxamide [PBI-4995]”: the cell permeability entry in series [1] is reported as “non-permeability”.
As to `O=C(N/N=C/c1ccc(O)c(O)c1)c1cc2ccccc2cc1O` [DYNASORE], the “effect on HaloTag-EDG1 internalization” value in series [2] is “prevented dynamin-dependent internalization/endocytosis”. The “HaloTag-EDG1 internalization after washout” value in series [3] is “restored”.
With `CN1CCN(c2ccc3c(c2)Oc2c4c5c(cc2=C3c2cc(C(=O)O)ccc2C(=O)[O-])CCC[N+]=5CCC4)CC1` [Hexahydroquinoiizino-(4-methylpiperazin-1-yl}-rhodamine-6′-carboxyic acid], in [4], the Em is recorded as 586 nm and the Ex was 559 nm.
With `CN1CCN(c2ccc3c(-c4cc(C(=O)NCCOCCOCCOCCOCCOCCOCCCCCCCl)ccc4C(=O)[O-])c4ccc(=[N+]5CCN(C)CC5)cc-4oc3c2)CC1` [PBI-4453, N-(24-chloro-3,6,9,12,15,18-hexaoxatetracosyl)-3′,6′-bis(4-methylpiperazin-1-yl)-rhodamine-(5,6)carboxamide], in [5], the emission maximum is 571 nm and the excitation maximum is 541 nm. For the same compound, in series [6], the “pH at or below which maximal fluorescence intensity is exhibited” value is recorded as no more than 4.15. Further, the “percent of maximal fluorescence” value in [6] (at pH 7.53 or higher) is on record as no more than 5%. Also, the pKa (in general, the pH at which an ionisable group is half protonated) in [6] (from pH dependence of fluorescence) was roughly 5.84. Besides, in series [7], the “toxicity (cell viability)” value is reported as “No toxicity”.
On to `O=C(NCCOCCOCCCCCCCl)c1cccc(CNC(=O)c2ccc(C(=O)[O-])c(-c3c4ccc(=[N+]5CCN(CCCCS(=O)(=O)O)CC5)cc-4oc4cc(N5CCN(CCCCS(=O)(=O)O)CC5)ccc34)c2)c1` [PBI-4958], for which, in [8], the cell permeability entry was “non-permeability”.
Take `O=C(NCCOCCOCCCCCCCl)c1ccc(CNC(=O)c2ccc(C(=O)[O-])c(-c3c4ccc(=[N+]5CCN(CCCCS(=O)(=O)O)CC5)cc-4oc4cc(N5CCN(CCCCS(=O)(=O)O)CC5)ccc34)c2)cc1` [PBI-4959, 4-((4-((2-(2-((6-chlorohexyl)oxy)ethoxy)ethyl)carbamoyl)benzyl))-3′,6′-bis(4-(4-sulfobutyl)piperazin-1-yl) rhodamine(5′,6′) carboxamide]: the cell permeability result in series [8] is listed as “non-permeability”. Moreover, in series [9], the “toxicity (cell viability)” value was “non-toxicity”. For the same compound, the “detection of HaloTag-EDG1 internalization” value in [10] (with 1 uM S1P) was “ability to detect internalization of HaloTag-EDG1”. Besides, the “detection of background HaloTag-EDG1 internalization” value in series [10] (without 1 uM S1P) is reported as “ability to detect background internalization of HaloTag-EDG1”. In series [4], this compound showed an Em of 564 nm and an Ex of 532 nm.
`O=C(CCOCCOCCOCCOCCNC(=O)c1ccc(C(=O)[O-])c(-c2c3ccc(=[N+]4CCN(CCCCS(=O)(=O)O)CC4)cc-3oc3cc(N4CCN(CCCCS(=O)(=O)O)CC4)ccc23)c1)NCc1cccc(C(=O)NCCOCCOCCCCCCCl)c1` [PBI-4994]: the cell permeability entry in [8] is “non-permeability”.
Consider `O=C(NCC1CCC(C(=O)NCCOCCOCCCCCCCl)CC1)c1ccc(C(=O)[O-])c(-c2c3ccc(=[N+]4CCN(CCCCS(=O)(=O)O)CC4)cc-3oc3cc(N4CCN(CCCCS(=O)(=O)O)CC4)ccc23)c1` (centres unmarked) [PBI-5004, 4-(((4-((2-(2-((6-chlorohexyl)oxy)ethoxy)ethyl)carbamoyl)cyclohexyl)methyl)) 3′,6′-bis(4-(4-sulfobutyl)piperazin-1-yl) rhodamine(5′,6′) carboxamide], for which the “toxicity (cell viability)” value in series [9] is “non-toxicity”. Besides, the “detection of HaloTag-EDG1 internalization” value in [11] is “ability to detect internalization of HaloTag-EDG1”. Further, in [4], the Em amounted to 560 nm and the Ex worked out at 532 nm.
